Where “and” joins values, the source holds several entries; their conditions need not be identical. Equal entries are not always repeated. Where two headings read alike, the source gives them in different places. No end group written: not given here.
Assays:
renin [1] = target: T1, renin (Homo sapiens, UniProt P00797); details: octapeptides with changed cleavage site; read-out: binding constants; cited from earlier work
T1 sequence (P00797 67-406): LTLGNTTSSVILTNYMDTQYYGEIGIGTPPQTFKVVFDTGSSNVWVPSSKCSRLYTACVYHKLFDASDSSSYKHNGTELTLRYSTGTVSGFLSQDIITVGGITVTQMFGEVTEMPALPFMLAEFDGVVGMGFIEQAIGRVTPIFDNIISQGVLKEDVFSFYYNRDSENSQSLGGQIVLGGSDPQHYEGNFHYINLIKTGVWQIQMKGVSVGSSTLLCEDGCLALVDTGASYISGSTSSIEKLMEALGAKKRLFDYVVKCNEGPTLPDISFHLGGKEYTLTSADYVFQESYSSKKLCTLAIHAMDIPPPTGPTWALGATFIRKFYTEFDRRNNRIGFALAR

renin [2] = target: T1, renin; assay: In vitro inhibition of renin, inhibitor constant (Ki) with tetradecapeptide substrate, angiotensin I radioimmunoassay; type: biochemical; details: pH 7.4, read-out: inhibitory constant (Ki)
Protocol: The peptide being tested is dissolved in 0.01 N HCl and the pH adjusted to pH 7.5 to obtain high concentrations of peptide. The peptide solution is diluted further to appropriate concentrations with 0.1 M Tris HCL-albumin.
First, to determine Km renin (0.006 Goldblatt unit/ml) is incubated for 2 hrs. at 37° with incremental concentrations of Tetradecapeptide substrate varying between 3 and 108 μM in a volume of 160 μl at pH 7.5 in 0.1 M Tris HCl containing 0.5% albumin. The release of angiotensin I is determined by radioimmunoassay, Haber et al., J. Clin. Endocrinol. […] The cross-reaction of the tetradecapeptide with antibody is about 1% and less than 0.5% with the renin inhibitors both before and after exposure to renin.
The inhibitor constant is calculated as previously described, Poulsen et al., Scand. […] No. 132, 1, (1973), from a weighted least-squares fit of a Lineweaver-Burk plot. Each point is given a weight proportional to the initial velocity, Dowd et al, J. Biol. Chem. 240, 863, (1965).
The tetradecapeptide is a renin substrate releasing angiotensin I after cleavage between leucyl residues at positions 10 and 11.
Specific antibody is used to measure angiotensin I release from the decapeptide.
The rate of cleavage between renin and decapeptide will therefore be given by Dixon and Webb, Enzymes, New York, N.Y., Academic (1964), [formula] […]

plasma renin activity = target: T2, plasma renin activity (Homo sapiens, UniProt P00797); assay: In vitro inhibition of plasma renin activity in pooled human plasma; type: biochemical; details: peptide in saline (1 mM) added to pooled human plasma; read-out: 50% inhibition of plasma renin activity (converted)
T2 construct: added to pooled human plasma having a plasma renin activity; from tissue; host or cells: pooled human plasma
T2 sequence (P00797 67-406): T1 sequence (P00797 67-406)
Protocol: The mixture is incubated for 45 min at 37° and then cooled to 0°. Complementary amounts of plasma are then added as 20 μl of a plasma dilution in 0.1 M Tris HCl (pH 7.5) containing 0.5% albumin to give the same amount of plasma protein in all tubes. Tracer and antibody (1000 μl) are then added following the radioimmunoassay procedure described by Poulsen et al, J. Clin. Endocrinol. Metab. 39, 816, (1974). Data for the standard curve is collected in the same medium kept at 4°. To determine Ki parallel series of experiments are performed in which the 10 μl Tris buffer is replaced with 10 μl of a solution containing between 2-100 μM inhibitor, respectively.
The inhibitory effect of the decapeptide in human plasma was determined as follows: human blood was drawn in ice cold tubes containing EDTA as anticoagulent and the plasma was immediately separated at 4° C. […] Substrate concentration was determined by measuring angiotensin I concentration by radioimmunoassay after incubation of plasma diluted 1:10 in the phosphate albumin buffer (pH 7.4) with 10 µl of human renin solution (0.006 GU/ml) for 1, 2, 3 and 4 hrs in order to convert renin substrate completely to angiotensin I. EDTA, BAL (2,3-dimercapto-1-propanol) and 8-hydroxyquinoline were added as angiotensinase inhibitors, Haber et al, J. Clin. Endocrinol. […]

Substance	Ki (renin [1]) [µM]	Ki (renin [2]) [µM]	IC50 (plasma renin activity)
Leu-Phe	4		
Leu-Tyr	12		
PHPFHFFVYK [I, Pro-His-Pro-Phe-His-Phe-Phe-Val-Tyr-Lys]		2	45 µM and 44.7 µM
Phe-Phe	1		

Source: patent US4269827A, “Process and composition for reducing blood pressure” (The Massachusetts General Hospital, priority 1980, dated 1981)
